According to patent US20260209152A1, “Substituted Hydroxystilbene Compounds and Derivatives, Synthesis and Uses Thereof” (Kynan Duke IP, LLC, priority 2019, published 2026):
“And” between values parts separate entries of the source, which are not always exact repeats. Equal values may be shown once. Read-outs that look alike come from different tables or passages of the source.

What was measured:
[1] = Cell viability in PBMC IL-17 assay (assay number 1322); assay type: cell-based, human; conditions: human
Experimental: (§1) The inflammatory skin disease psoriasis is characterized by cytokines IL-17A and TNFα. In the present assay, human peripheral blood mononuclear cells (PBMC) are stimulated with beads coated with antibodies against CD3 and CD28 to activate the T-cell receptor, and stimulated with IL-23 to promote T-helper17 activity. The cells are incubated for three days, then the secreted level of IL-17A is measured in the culture supernatant using AlphaLISA and the amount of living cells is measured by addition of resazurin (PrestoBlue®) to identify compounds that inhibit cell proliferation or viability. […] Compounds which inhibit IL-17A secretion may be expected to have efficacy in psoriasis.
(§2) • IL-17A concentration in the supernatants is measured using an alphaLISA kit (Perkin Elmer, cat no. AL219F). • Pretest to find optima dilution of samples: Test 5 μL supernatant from control wells and run IL-17A alphaLISA assay with only 2 hours of incubation. • When data are available, remove assay plates from incubation and equilibrate to room temperature for 30 minutes. • Transfer 5 μL or corrected amounts of supernatant to a 384-proxy plate • Add 5 μL alphaLISA acceptor beads. • Incubate 1 hour at room temperature • Add 5 μL donor beads • Incubate overnight at room temperature protected from light. • Add 7 μL PrestoBlue reagent (resazurin)/well to the assay plate and incubated for 2-4 hours at 37° C./5% CO2. The fluorescence in the wells is measured (Ex615/Em 535).
(§3) The level of living cells in the wells is measured by the addition of PrestoBlue® and the conversion of Resazurin to Resorufin (fluorescent) in living cells is measured.
(§4) The effect of the test compounds on viability/proliferation is normalized to the PrestoBlue signal in the negative control wells treated with a toxic compound, Terfenadine.

human PBMC = assay: as above; assay type: cell-based; conditions: Homo sapiens
Experimental: as §1, §2, §3, §4

GBM patient sample BNB04 = assay: Ex vivo GBM 3D spheroid drug response (CellTiter-Glo 3D); assay type: cell-based, human; conditions: Homo sapiens, 96 h, 3D spheroids; 4 days post drug treatment
Description: This project involves an ex vivo drug response screen for 3 ROKiT Pharma test agents and Temozolomide in 3 previously dissociated and cryopreserved GBM samples.
• 2.1 Three previously processed GBM patient samples were chosen to be used in this study.

Kidney ACHN = assay: CellTiter Glo cell viability assay; assay type: cell-based; conditions: Homo sapiens; ACHN/CRL-1611; 11 dilutions 3-0.00001 μM
Colon SW_480 = assay: CellTiter Glo cell viability assay; assay type: cell-based, human; conditions: for IC50: Homo sapiens
Kidney 769-P = assay: CellTiter Glo cell viability assay; assay type: cell-based; conditions: Homo sapiens
Experimental: (§5) 1.7*10^3 cells/well were seeded in quadruplicates in 96-well plate after plating. Drugs were added at 5 μM and 2-fold dilutions over 18 concentrations (0.000038146-5 […] range) to generate a dose-response curve. Cell growth was assessed on day 1, 3 and 5 after drug treatments using the CellTiter Glo Luminescence Cell Viability Assay (Promega) according to manufacturer's protocol. Thermo Scientific Varioskan LUX Multimode Microplate instrument was used for plate reading. Data are expressed as mean luminescence (arbitrary units) ±S.D.
(§6) Cell Viability Assays were employed to determine the concentration of Compound 1 (KYN-001) and analogues where the response is reduced by half. For each treatment of cancer cells, 1, 2, 5, 10 and 20 μM solutions of compounds were applied. GraphPad Prism 7 software was used to fit dose response curves. Relative Luminescence Units were plotted against the log values of the doses used and the nonlinear regression model was used for data analysis.
(§7) The protocol for cell proliferation was optimized for Compound 8 (KYN-119) to enable a more accurate assessment of its low IC50 value. In this protocol, 18 dosages (2 fold dilutions ranging from 0.000038146 to 5 μM) were applied to cells seeded in 96-well plates, and Luminescence was measured after 1, 3 and 5 days upon treatments.

Bladder RT4 = assay: CellTiter Glo cell viability assay; assay type: cell-based; conditions: Homo sapiens
Experimental: as §5, §6, §7

Rhabomyosarcoma A-204 = assay: CellTiter Glo cell viability assay; assay type: cell-based; conditions: Homo sapiens
Experimental: as §5, §6, §7

[2] = system: Cancer cells including pancreatic, bladder, kidney, colon, breast, lung, liver and osteosarcomas; assay: CellTiter Glo cell viability assay, panel of cancer cell lines; assay type: cell-based, human
Method in brief: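 Cells (1.7*10^3/well) were seeded in quadruplicate and treated with 2-fold dilutions over 18 concentrations up to 5 μM, or with 1, 2, 5, 10 and 20 μM. Viability was read by CellTiter Glo luminescence on days 1, 3 and 5; half-maximal concentrations came from nonlinear regression of RLU versus log dose.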

Kidney A-498 = assay: CellTiter Glo cell viability assay; assay type: cell-based, human
Method in brief: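 A498 human kidney cancer cells were seeded in 96-well plates in quadruplicate at 1.7*10^3 cells/well and exposed to serial dilutions of test compound. Viability was read with the Promega CellTiter Glo Luminescence assay on a Thermo Scientific Varioskan LUX plate reader. The half-maximal inhibitory concentration was obtained by nonlinear regression in GraphPad Prism 7.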

[3] = maximum reduction of cell viability in PBMC IL-17 assay, read-out: Max Eff.: Viab (1322)
[4] = cell viability in PBMC IL-17 assay, read-out: Abs EC50: Viab (1322)
[5] = SW480, 72 h, 3 Days of treatment, 18 2-fold dilutions 5-0.00003 μM, read-out: Average IC50
[6] = SW480/CCL-228, 11 dilutions 3-0.00001 μM, read-out: IC50
[7] = 769-P/CRL-1933, 11 dilutions 3-0.00001 μM, read-out: IC50
[8] = RT4/HTB-2, 11 dilutions 3-0.00001 μM, read-out: IC50
[9] = A204, A-204/HTB-82, 11 dilutions 3-0.00001 μM, read-out: IC50
[10] = Homo sapiens, A498, 72 h, 3 Days of treatment, 18 2-fold dilutions 5-0.00003 μM, read-out: Average IC50
[11] = Homo sapiens, A498, 72 h, Table 4: 3 Days of treatment, 18 2-fold dilutions 5-0.00003 μM, Average (1, 8) or single Exp A-D, read-out: IC50
[12] = Homo sapiens, A498, A-498/HTB-44, 11 dilutions 3-0.00001 μM, Table 6, read-out: IC50
[13] = Homo sapiens, A498, Table 5A: 11 dilutions 3-0.00001 μM, average of experiments, read-out: IC50 average
[14] = IC50 of 1 [KYN-001] vs 8 [KYN-119], 3 Days
[15] = Homo sapiens, A498, Table 5A: 11 dilutions 3-0.00001 μM, single experiments Exp E-K, read-out: IC50

Row | Structure (SMILES) | cytotoxicity at 3 days [1, 3] | EC50 (human PBMC; [4]) | IC50 (GBM patient sample BNB04) | IC50 (Kidney ACHN) | IC50 (Colon SW_480; [6]) | IC50 (Kidney 769-P; [7]) | IC50 (Bladder RT4; [8]) | IC50 (Rhabomyosarcoma A-204; [9]) | IC50 (Kidney A-498; [12]) | IC50 (Kidney A-498; [13]) | IC50 (Kidney A-498; [15]) | also measured
1 | COc1cc(/C=C/c2cc(O)cc(OC)c2CC=C(C)C)ccc1O [Compound 1, (E)-3-(4-hydroxy-3-methoxystyryl)-5-methoxy-4-(3-methylbut-2-en-1-yl)phenol] | 50% | 5000 nM | 10900 nM | 241 nM | 225 nM | 363 nM | 1380 nM | 199 nM | 1070 nM | 1140 nM | – | IC50 (Colon SW_480; [5]): 179 nM; IC50 (Colon SW_480; SW480, 72 h, Day 3 upon drug treatment, 10 dosages 0.0001-20 μM, read-out: IC50): 298 nM; Effect on cell viability on Day 1 ([2]; Day 1 upon treatment at dosages <1 μM): neither 1 nor 8 affect cell viability; IC50 ([2]; Homo sapiens, comparative study on 83 cancer cell lines (Table 3), read-out: IC50 values in the range, towards the cell lines listed in the text): 10 to 100 nM; IC50 (Kidney A-498; [10]): 2810 nM; IC50 (Kidney A-498; [11]): 109 nM
2 | CCOc1cc(O)cc(/C=C/c2ccc(O)c(OC)c2)c1CC=C(C)C [Compound 8, (E)-3-Ethoxy-5-(4-hydroxy-3-methoxystyryl)-4-(3-methylbut-2-en-1-yl)phenol] | 57% | 582 nM | – | 75.7 nM | 109 nM | 109 nM | 968 nM | 67.8 nM | 401 nM | 360 nM | – | IC50 (Colon SW_480; [5]): 17.9 nM; Fold IC50 (Colon SW_480; [14]): 10; IC50 (Kidney 769-P; 769-P, 72 h, 3 Days of treatment, 18 2-fold dilutions 5-0.00003 μM, read-out: Average IC50): 33.7 nM; IC50 (Bladder RT4; 72 h, 3 Days of treatment, 18 2-fold dilutions 5-0.00003 μM, read-out: Average IC50): 1670 nM; IC50 (Rhabomyosarcoma A-204; A204, 72 h, 3 Days of treatment, 18 2-fold dilutions 5-0.00003 μM, read-out: Average IC50): 30.7 nM; Average fold (8 [KYN-119] more potent than 1 [KYN-001]) ([2]; 83 cancer cell lines, Table 3): 10; IC50 (Kidney A-498; [10]): 329 nM; IC50 (Kidney A-498; [11]): 10.3 nM; Fold IC50 (Kidney A-498; [14]): 8.5; IC50 (Kidney A-498; Table 5A: 11 dilutions 3-0.00001 μM, average of experiments, read-out: IC50 average): 430 nM
3 | CCOc1cc(O)cc(/C=C/c2ccc(O)c(O)c2)c1CC=C(C)C [Compound 20, (E)-4-(3-Ethoxy-5-hydroxy-2-(3-methylbut-2-en-1-yl)styryl)benzene-1,2-diol] | 47% | 5000 nM | 23700 nM | 83.4 nM | 158 nM | 174 nM | 2010 nM | 131 nM | 620 nM | – | – | –
4 | COc1cc(/C=C/c2cc(O)cc(OC)c2CC=C(C)C)ccc1NC=O [Compound 27, (E)-N-(4-(5-hydroxy-3-methoxy-2-(3-methylbut-2-en-1-yl)styryl)-2-methoxyphenyl)formamide] | 52% | 5000 nM | 4310 nM | 26.7 nM | 89.6 nM | 110 nM | 453 nM | 52.4 nM | 642 nM | 728 nM | – | –
5 | CCOc1cc(O)cc(/C=C/c2ccc(NC=O)c(OC)c2)c1CC=C(C)C [Compound 28, (E)-N-(4-(3-Ethoxy-5-hydroxy-2-(3-methylbut-2-en-1-yl)styryl)-2-methoxyphenyl)formamide] | – | 659 nM | – | 18.8 nM | 30 nM | 40.1 nM | 463 nM | 25.3 nM | 198 nM | – | 100 to 1000 nM | cytotoxicity at 3 days ([1]; PBMC IL-17 assay, read-out: maximum reduction of cell viability): 54%; EC50 (human PBMC; PBMC IL-17 assay, read-out: EC50, cell viability): 659 nM; Cancer cell viability inhibition, statement in words ([2]; SAR discussion based on IC50 values in Tables 1 to 5, compared with 1 [KYN-001]): much enhanced inhibition; IC50 (Kidney A-498; Table 5A: 11 dilutions 3-0.00001 μM, single experiments Exp E-K, read-out: IC50): 180 nM and 181 nM
6 | COc1cc(/C=C/c2cc(O)cc(OC)c2CC=C(C)C)ccc1NC(=O)CN [Compound 31, (E)-2-amino-N-(4-(5-hydroxy-3-methoxy-2-(3-methylbut-2-en-1-yl)styryl)-2-methoxyphenyl)acetamide] | 32% | 5000 nM | – | – | – | – | – | – | – | – | > 3000 nM | –
7 | CCOc1cc(O)cc(/C=C/c2ccc(NC(=O)C(=O)O)c(OC)c2)c1CC=C(C)C [Compound 35, (E)-2-((4-(3-Ethoxy-5-hydroxy-2-(3-methylbut-2-en-1-yl)styryl)-2-methoxyphenyl)amino)-2-oxoacetic acid] | 18% | 5000 nM | – | – | – | – | – | – | – | – | > 3000 nM | –
